Test results: paper PMC5143673 (Innate immunity, 2016)
Non-standard residues stand in square brackets, D forms with d. No end group written: not given here. hCit = NC(=O)NCCCC[C@H](N)C(=O)O

Key:
[1] = molecular target: N-HisTag containing ApoA1 (NH-ApoA1) (UniProt P02647); assay: SPR
UniProt P02647, sequence (P02647 19-267): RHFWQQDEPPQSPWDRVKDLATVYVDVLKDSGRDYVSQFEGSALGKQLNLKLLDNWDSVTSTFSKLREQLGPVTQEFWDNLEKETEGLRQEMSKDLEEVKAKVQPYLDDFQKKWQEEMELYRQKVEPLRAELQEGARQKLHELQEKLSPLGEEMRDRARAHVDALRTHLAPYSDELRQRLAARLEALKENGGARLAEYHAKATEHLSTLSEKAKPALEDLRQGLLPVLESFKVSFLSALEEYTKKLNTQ

For “LLGDFFRKSKEKIGKEFKRIVQRIKDFLRNLVPRTES [LL-37]”, the “capacity to lyse neutrophils and erythrocytes” value (neutrophils) was “ability of LL-37^C8 and LL-37^C12,15 to lyse neutrophils and erythrocytes was different”.

B1: LL-37^C12,15 (LL-37 carbamylated on Lys-12 and Lys-15) (peptide)
peptide: LLGDFFRKSKE[hCit]IG[hCit]EFKRIVQRIKDFLRNLVPRTES
B1 gave a fold lower affinity than native LL-37 [1] of 3 fold.
